Data from EP0014434A1, “Right-turning basic derivative of 9,10-ethanoanthracene, process for its preparation and pharmaceutical preparations containing it” (priority 1979, dated 1980).

Experiments:
[1] = system: durch 2 mg/kg sc. Reserpin induzierte Ptosis; test: Antagonism of reserpine-induced ptosis; assay type: in vivo, männlichen Ratten
Method: (§1) Das S-(+)-o-[Methylamino)methyl]-9,10-äthanoan- thracen-9(10H)-äthanol und seine Säureadditionssalze besitzen wertvolle pharmakologische Eigenschaften. Vor allem zeigen sie sehr starke Wirkungen in Tests, die für Antidepressiva charakteristisch sind. Eine deutliche Antagonisierung der durch 2 mg/kg sc. Reserpin induzierten Hypothermie an männlichen Mäusen [Askew, Life Sci. 10, 725 (1963),und Benz und Waser, Dissertation 1971, Pharmakolog. […] Die durch 2 mg/kg sc. Reserpin induzierte Ptosis an männlichen Ratten [Rubin et al, J. Pharmacol. Exp. Therap.

[2] = system: Noradrenalin- Aufnahme ins Rattenherz; test: Inhibition of noradrenaline uptake into rat heart (method of Maitre, Staehelin and Bein); assay type: in vivo, Ratte; details: po, Formel I tested as Hydrochlorid, read-out: ED50 Hemmung der Noradrenalin- Aufnahme ins Rattenherz
Method: Neurobiochemisch zeigt das Hydrochlorid der Verbindung der Formel I eine starke Hemmung der Noradrenalin- Aufnahme ins Rattenherz gemäss der Methode von L. Maitre, M. Staehelin und H. Bein, Biochem. Pharmacol. 20, 2169 (1971) mit einer ED50 von etwa 0,3 mg/kg p.o., während die ED50 des entsprechenden Racemats bei etwa 1,5 mg/kg p.o. liegt, wie auch eine starke Hemmung des Noradrenalindepletierenden Effektes von H 77/77 (3-Hydroxy-4,a-dimethyl- phenäthylamin) im Rattenhirn als indirekte Anzeige der Noradrenalin-Aufnahme-Hemmung [A. Carlsson, H. Corrodi, K. Fuxe und T. Hoefkelt, Europ. J. Pharmacol. 5, 367 (1969)] mit einer ED50 von etwa 2 mg/kg p.o., gegenüber einer ED50 von etwa 10 mg/kg p.o. des entsprechenden Racemats. Die endogenen Konzentrationen von Noradrenalin und von Dopamin im Rattenhirn, gemessen nach P. Waldmeier, de Herdt und L. Maitre [Chir. Chem. 20, 81, (1974)] werden weder vom Hydrochlorid der Verbindung der Formel I in Dosen bis 100 mg/kg bzw. bis 30 mg/kg p.o., noch vom entsprechenden Racemat in Dosen bis 10 mg/kg bzw. bis 100 mg/kg beeinflusst.

[3] = system: Noradrenalindepletierenden Effektes von H 77/77 (3-Hydroxy-4,a-dimethyl- phenäthylamin) im Rattenhirn; test: Inhibition of the noradrenaline-depleting effect of H 77/77 in rat brain (indirect measure of noradrenaline uptake inhibition); assay type: in vivo, Ratte; details: po, Formel I tested as Hydrochlorid, read-out: ED50 Hemmung des Noradrenalindepletierenden Effektes von H 77/77 im Rattenhirn
[4] = system: endogenen Konzentrationen von Noradrenalin im Rattenhirn; test: Endogenous noradrenaline concentration in rat brain; assay type: in vivo, Ratte; details: no influence up to this dose, p.o. for Formel I (Hydrochlorid)
[5] = system: endogenen Konzentrationen von Dopamin im Rattenhirn; test: Endogenous dopamine concentration in rat brain; assay type: in vivo, Ratte; details: no influence up to this dose, p.o. for Formel I (Hydrochlorid)
[6] = system: durch 2 mg/kg sc. Reserpin induzierten Hypothermie; test: Antagonism of reserpine-induced hypothermia; assay type: in vivo, männlichen Mäusen; details: male mice, Hydrochlorid compared with the corresponding Racemat
Method: as §1

Histamin-Toxizität = test: Antagonism of histamine toxicity; assay type: in vivo, Meerschweinchen; details: guinea pig; equal doses of Formel I (tested as Hydrochlorid) and Racemat
Source text: (§2) Therap. 125, 28-34 (1959)], während bei der Antagonisierung der durch Tetrabenazin induzierten Katalepsie der Ratte nach oraler Verabreichung, und bei der Potenzierung der durch G 29 505 [2-(4-Allyl-2-methoxyphenoxy)-N,N-diäthyl-acetamid] bewirkten Narkose der Maus [W. Theobald und R. Domenjoz, Arzneimittelforsch.

[7] = system: exploratorischen Aktivität der Maus; test: Exploratory activity; assay type: in vivo; details: mouse; equal doses of Formel I (tested as Hydrochlorid) and Racemat
[8] = system: durch Fuss-Schock induzierten Kampfreaktion der Maus; test: Foot-shock induced fighting reaction; assay type: in vivo; details: mouse; equal doses of Formel I (tested as Hydrochlorid) and Racemat
Source text: as §2

[9] = system: durch Tetrabenazin induzierten Katalepsie der Ratte; test: Antagonism of tetrabenazine-induced catalepsy; assay type: in vivo; details: rat; oral administration; Hydrochlorid compared with Racemat
Source text: as §2

[10] = system: durch G 29 505 [2-(4-Allyl-2-methoxyphenoxy)-N,N-diäthyl-acetamid] bewirkten Narkose der Maus; test: Potentiation of G 29 505-induced narcosis; assay type: in vivo; details: mouse; intraperitoneal administration; Hydrochlorid compared with Racemat
Source text: as §2

Acute toxicity = assay type: in vivo
[11] = system: isolierten rechten Vorhof; design: species or system Meerschweinchen

SMILES	Dosierung, die die Reserpin induzierte Ptosis völlig aufhebt ([1]; male rats, relative to 0,3 mg/kg p.o. of the Hydrochlorid of Formel I)	ED50 [2] [mg/kg]	ED50 [3] [mg/kg]	Dosen, bis zu denen die endogene Konzentration von Noradrenalin im Rattenhirn nicht beeinflusst wird [4] [mg/kg]	Dosen, bis zu denen die endogene Konzentration von Dopamin im Rattenhirn nicht beeinflusst wird [5] [mg/kg]	Antagonisierung der Reserpin induzierten Hypothermie, Vergleich mit Racemat [6]	Reserpin induzierte Ptosis ([1]; male rats, 0,3 mg/kg p.o. of the Hydrochlorid)	Reserpin induzierte Ptosis ([1]; male rats, O,1 mg/kg p.o. of the Hydrochlorid)	Antagonisierung der Histamin-Toxizität, Vergleich mit Racemat (Histamin-Toxizität)	exploratorische Aktivität, Vergleich mit Racemat [7]	durch Fuss-Schock induzierte Kampfreaktion, Vergleich mit Racemat [8]	Antagonisierung der durch Tetrabenazin induzierten Katalepsie, Vergleich mit Racemat [9]	Potenzierung der durch G 29 505 bewirkten Narkose, Vergleich mit Racemat [10]	akute Toxizität, Vergleich mit Racemat (Acute toxicity; intravenous administration)	akute Toxizität, Vergleich mit Racemat (Acute toxicity; oral administration)	negativ chronotrope Wirkung, Vergleich mit Racemat [11]
CNCC(O)CC12CCC(c3ccccc31)c1ccccc12 (racemic) [Racemat, a-[(Methylamino)methyl]-9,10-äthanoanthracen-9(10H)-äthanol, reference compound]	erheblich höheren Dosierung	~1.5	~10	≤ 10	≤ 100	–	–	–	–	–	–	–	–	–	–	–
CNC[C@@H](O)CC12CCC(c3ccccc31)c1ccccc12 [Verbindung der Formel I, S-(+)-a-[(Methylamino)methyl]-9,10-äthanoanthracen-9(10H)-äthanol]	–	~0.3	~2	≤ 100	≤ 30	stärker als die Wirkung von mehrfachen Dosen des entsprechenden Racemats	aufgehoben	deutlich vermindert	ungefähr dieselben Wirkungen	ungefähr dieselben Wirkungen	ungefähr dieselben Wirkungen	in ungefähr der halben Dosierung gleich wirksam	in ungefähr der halben Dosierung gleich wirksam	ungefähr gleich	ungefähr gleich	schwächer
